In US20260193246A1, “METHOD OF MAKING LANIFIBRANOR” (INVENTIVA, priority 2023, published 2026):

What was measured:
Format in all cases: physicochemical
[1] = Compressibility index and Hausner ratio from bulk and tapped density (Electrolab ETD-1020)
Experimental: The compressibility index and Hausner ratio were determined using an Electrolab ETD-1020 apparatus using measured values of bulk density (ρbulk) and tapped density (ρtapped) as follows: [formula] [formula]

Thermogravimetry (TGA) = conditions: temperature range 25-200° C.
Experimental: Crystalline form beta of lanifibranor is also characterized by its thermogravimetry (TGA) curve. […] Above 250° C., the weight loss observed likely corresponds to degradation. In some embodiments, said TGA curve is substantially in accordance with FIG. 3.

[2] = Dynamic vapor sorption (DVS); conditions: range 0% RH-95% RH
Text: Crystalline form beta of lanifibranor is also characterized by its dynamic vapor sorption (DVS). […] In some embodiments, the DVS isotherm plot of crystalline form beta of lanifibranor is substantially in accordance with FIG. 4.

[3] = Angle of repose (powder flow, Electrolab EFT-01); conditions: 50 g of powder through an orifice of 25 mm; rounded average of three experiments
Experimental: Powder flow and the angle of repose were determined using an Electrolab EFT-01 apparatus. In a first step, powder flow is measured through various orifices (10, 15 and 25 mm). In a second step, the angle of repose is measured by the height of the cone formed by a sample of 50 g of powder passing through an orifice of 25 mm. The result obtained in the rounded average of three experiments.

Hausner ratio [1]: 1.26
compressibility index [1]: 20.64
maximum uptake (weight variation, DVS) [2]: +0.1%
angle of repose [3]: 35 °
Structure (SMILES): O=C(O)CCCc1cc2cc(Cl)ccc2n1S(=O)(=O)c1ccc2ncsc2c1 [crystalline form beta of lanifibranor, 1-(6-benzothiazolylsulfonyl)-5-chloro-1H-indole-2-butanoic acid]
weight loss (TGA) (Thermogravimetry (TGA)): does not highlight any significant weight loss
